Experimental data published in patent US5556751A, “Selective amplification system using Q-β replicase” (Amoco Corporation, priority 1994, dated 1996).

How the values were obtained:
[1] = biological target: replication of MDV-1 by Qβ replicase (Escherichia virus Qbeta, UniProt P14647); assay: Inhibition of MDV-1 replication by dyes in linear-phase Qβ replicase reactions; type: biochemical, bacteriophage Qβ; conditions: for ability to inhibit the replication of MDV-1: linear-phase reactions, template RNA in excess over enzyme
Procedure: A number of dyes, including ethidium bromide, ethidium bromide homodimer, propidium iodide, proflavine, quinacrine, Hoescht 33258 (bis-benzamidine),dimidium bromide and acridine orange, were tested for their ability to inhibit the replication of MDV-1 in linear-phase reactions, i.e., where the template RNA is present in excess over the enzyme and the amount of replicated RNA thus increases linearly with time. […] One of the strongest inhibitors, propidium iodide, was selected for further study.

[2] = biological target: T1, replication of wild type MDV-1 RNA by Qβ replicase (Escherichia virus Qbeta, UniProt P14647); assay: Effect of propidium iodide on replication of wild type MDV-1 RNA in a Qβ replicase preparation (32P-CTP incorporation time course); type: biochemical, bacteriophage Qβ
T1 construct: made in house
Procedure: Propidium iodide was tested for its effect on the replication of wild type RNA in a preparation of Qβ replicase. Propidium iodide in an amount of either 0, 1, or 3 μg/ml was added to a reaction buffer containing: 90 mM Tris HCl (pH7.5), 14 mM MgCl2, 0.4 mM each ATP, GTP, UTP, and CTP, and 10 μCi α- ^32 P-CTP. The Qβ replicase reaction was initiated in each sample by addition of 1.2 μg of Qβ replicase prepared according to the method of Eoyang and August, (1972), ibid. Aliquots of the reaction mixture were withdrawn every 5 minutes and spotted on DE81 filters (Schleicher & Schuell Inc., Keene, N.H.). The spotted filters were washed repeatedly with 0.5M NaPO4, (pH7.0) to remove unincorporated nucleotide. The filters were counted for Cerenkov radiation by standard procedures in a scintillation counter. Addition of propidium iodide delayed the point in time at which levels of incorporation resulting from the replication of wild type MDV-1 template became detectable.

Row | SMILES | ability to inhibit the replication of MDV-1 [1] | further results
1 | CN1CCN(c2ccc3[nH]c(-c4ccc5[nH]c(-c6ccc(O)cc6)nc5c4)nc3c2)CC1 [Hoescht 33258, Hoescht 33258 (bis-benzamidine)] | except Hoescht 33258, inhibited | 
2 | CN(C)c1ccc2cc3ccc(N(C)C)cc3nc2c1 [acridine orange] | inhibited | 
3 | C[n+]1c(-c2ccccc2)c2cc(N)ccc2c2ccc(N)cc21 [dimidium bromide] | inhibited | 
4 | Cl.Cl.Nc1ccc2c(c1)c(-c1ccccc1)[n+](CCCNCCNCCC[n+]1c(-c3ccccc3)c3cc(N)ccc3c3ccc(N)cc31)c1cc(N)ccc21.[Cl-].[Cl-] [ethidium bromide homodimer] | inhibited | 
5 | CC[n+]1c(-c2ccccc2)c2cc(N)ccc2c2ccc(N)cc21 [ethidium bromide] | inhibited | 
6 | Nc1ccc2cc3ccc(N)cc3nc2c1 [proflavine] | inhibited | 
7 | CC[N+](C)(CC)CCC[n+]1c(-c2ccccc2)c2cc(N)ccc2c2ccc(N)cc21 [propidium iodide] | inhibited | inhibition at 3 µg/mL ([1]; dye concentration about 3μg/ml): 70%; inhibition at 1 µg/mL ([2]; propidium iodide 1 μg/ml, read-out: inhibition of the rate of replication in the geometric phase): 20 to 50%; delay of the appearance of replicated product ([2]; propidium iodide 1 μg/ml, wild type MDV-1 template): 2 to 5 min; reduction in the rate of replication ([2]; propidium iodide 3μg/ml): ~3 fold; delay of the appearance of product ([2]; propidium iodide 3μg/ml, wild type MDV-1 template): about 20 minutes
8 | CCN(CC)CCCC(C)Nc1c2ccc(Cl)cc2nc2ccc(OC)cc12 (stereo not shown) [quinacrine] | inhibited | 
